# Data taken from patent US10307418B2, “Azole pharmaceutical formulations for parenteral administration and methods for preparing and using the same as treatment of diseases sensitive to azole compounds” (Platform Brightworks Two, Ltd., priority 2010, dated 2019).
# Like-named read-outs stand apart in the source and are kept apart here.
# Columns and labels:
# [1] = system: Zygomycete (Clinical Lab isolate, MDACC); assay: Extended mold testing, MIC (CLSI M38A); assay type: cell-based; settings: H3 final use-formulation, range 75 μg/mL to 0.07 μg/mL, 48 hr, read-out: MIC
# Excerpt: To further determine the antifungal activity of the compounds in the new formulation systems we investigated the efficacy of the various agents against additional strains of mucor and Aspergillus (9/-16-9/20/2010) (The Rhizomucor was a clinical isolate from a patient isolate) and the Aspergillus fumigatus (ATCC strain 90906) used was a repeat from the previously described experiment. Again, the susceptibility tests were set-up using the standardized test method (CLSI M38A). The used drugs were provided in the described H3 final use-formulation that has been previously described. All drugs were diluted in RPMI-Mops medium (YeastOne, Sensititer Lot 151416SA, expiration date January 2011).
# As before two different molds were tested with a standard read out at 48 hr: • Drug dilution range 75 μg/mL to 0.07 μg/mL. • Aspergillus fumigatus (ATCC strain 90906) Zygomycete (Clinical Lab isolate, MDACC)
# [2] = Stability of ITZA/POSA in solvent vehicles (HPLC); assay type: physicochemical
# [3] = system: Aspergillus fumigatus (Clinical Lab isolate); assay: Mold susceptibility test, MIC; assay type: cell-based; settings: tested range 75 μg/mL to 0.07 μg/mL, read out at 48 hrs
# Procedure: Two hyaline molds were tested with a standard read out at 48 hrs:
# Tested drug range: 75 μg/mL to 0.07 μg/mL
# Briefly, susceptibility tests were set-up using a standardized methodology (CLSI […] standard). Drugs were diluted into RPMI-Mops medium (Yeast One Broth (Sensititer, product Y3462, Trek Diagnostic Systems, Cleveland, Ohio) Sensititer Lot number 151416SA-expiration date 2011-01). Two different strains of yeast were tested, the standardized evaluation/read out was performed at 24 hours after the start of each culture. The tests were repeated twice and all MIC (minimum inhibitory concentration) values are reported as an average of the three experiments.
# in vivo = settings: both, Swiss Webster, mouse, plasma, iv, 5 mg/kg
# Procedure: (§1) Swiss Webster mice were used for pharmacokinetic studies of ITZA and its analogs. The dilation of the vein was accomplished by warming up the mice using a heat lamp. […] Mice were allowed to recover and blood samples were obtained through cardiac puncture under general anesthesia with Isoflurane/oxygen by vaporizer at various time points. Plasma was obtained by centrifugation of blood sample at 3,200 rpm for 5 min. at 4° C. Plasma proteins were precipitated by adding acetonitrile (twice the volume of plasma). The mixture was vortexed for 30 seconds and centrifuged for 5 min. at 14,000 rpm. The supernatant was saved and was injected into the HPLC to determine the respective drug concentrations.
# (§2) Unless specified, the analogous experiments were performed using POSA as an alternative to ITZA; Swiss Webster mice of both sexes with a body weight of 25-30 g were used for the in vivo pharmacology experiments (Harlan-Sprague-Dawley, Houston, Tex.). The animals were allowed a minimum of 7 days after arrival to accommodate to the new environment and allowed free access to commercial feed and tap water prior to and during the experimentation period. The animals were housed in an Association for the Assessment and Accreditation of Laboratory Animal Care International (AAALAC)-approved facility that meets the requirements of the USDA, NIH, and DHHS.
# (§3) The ITZA dose of 5 mg/kg BW was determined to be a suitable test dose that could be administered to the mice as a slow (3-4 min) IV bolus injection without requiring sedation, but could be performed with only minimal physical restraint of the animals in a standard funnel-type cage.
# (§4) The ITZA was formulated in the H3 solvent system described above as the preferred solvent to a stock concentration of 4-5 mg/mL and then diluted with NS (ratio 1:1) so the intended dose (5.0 mg/kg BW) could be injected in a tail vein in a total volume of approximately 100 μL. […] No sedative premedication was used for the mice in this experiment to avoid the possible induction of microsomal liver enzymes that could modify ITZA metabolism. Thus, the animals were unanesthetized, being only physically restrained during and immediately following the drug injection.
# (§5) Blood samples (0.5-1.0 mL) were drawn through cardiac puncture into heparinized tubes at selected time points prior to the drug infusion (“blank”), and from 5 min to 1 hour after drug injection for determination of ITZA concentrations, and for 5 min to about 7 hrs in the POSA experiment. The mice were exposed to 2% -4% isoflurane for general anesthesia. Blood samples were obtained through cardiac puncture and immediately deposited in heparinized microcentrifuge tubes.
# [4] = mouse, in vivo, 5 mg/kg
# Procedure: as §1, §2, §3, §4, §5
compound,measurement,setting,value
"CCC(C)n1ncn(-c2ccc(N3CCN(c4ccc(OCC5COC(Cn6cncn6)(c6ccc(Cl)cc6Cl)O5)cc4)CC3)cc2)c1=O (stereo not shown) [ITZA, itraconazole]",MIC,[1],2.5 µg/mL
same,Stability (% remaining),"[2]; 2-6 mg/mL in composite (prototype) solvent vehicles, more than three days or 72 hours at RT",more than 90%
same,Stability (%),"[2]; H3D, 4 mg/mL, 0 hr",100%
same,Stability (%),"[2]; H3D, 4 mg/mL, 2 hr",102%
same,Stability (%),"[2]; H3D, 4 mg/mL, 4 hr",101%
same,Stability (%),"[2]; H3D, 4 mg/mL, 8 hr",99%
same,Stability (%),"[2]; H3D, 4 mg/mL, 24 hr",97%
same,stability of ITZA,"[2]; H3D, day 0",100%
same,stability of ITZA,"[2]; H3D, day 1",94%
same,stability of ITZA,"[2]; H3D, day 2",95%
same,stability of ITZA,"[2]; H3D, day 3",93%
same,stability of ITZA,"[2]; H3D, day 4",94%
same,stability of ITZA,"[2]; H3D, day 5",98%
same,stability of ITZA,"[2]; H3D/5% dex., day 0",100%
same,stability of ITZA,"[2]; H3D/5% dex., day 1",100%
same,stability of ITZA,"[2]; H3D/5% dex., day 2",103%
same,stability of ITZA,"[2]; H3D/5% dex., day 4",99%
same,stability of ITZA,"[2]; H3D/5% dex., day 5",93%
same,stability of ITZA,"[2]; H3D/10% Dex., day 0",100%
same,stability of ITZA,"[2]; H3D/10% Dex., day 1",98%
same,stability of ITZA,"[2]; H3D/10% Dex., day 2",98%
same,stability of ITZA,"[2]; H3D/10% Dex., day 3",102%
same,stability of ITZA,"[2]; H3D/10% Dex., day 4",99%
same,stability of ITZA,"[2]; H3D/10% Dex., day 5",105%
same,stability of ITZA,"[2]; H3D/sal., day 0",100%
same,stability of ITZA,"[2]; H3D/sal., day 1",107%
same,stability of ITZA,"[2]; H3D/sal., day 2",107%
same,stability of ITZA,"[2]; H3D/sal., day 3",110%
same,stability of ITZA,"[2]; H3D/sal., day 5",90%
same,stability of ITZA,"[2]; H3G, day 0",100%
same,stability of ITZA,"[2]; H3G, day 1",103%
same,stability of ITZA,"[2]; H3G, day 2",100%
same,stability of ITZA,"[2]; H3G, day 3",89%
same,stability of ITZA,"[2]; H3G, day 4",103%
same,stability of ITZA,"[2]; H3G, day 5",106%
same,stability of ITZA,"[2]; H3G/5% Dex., day 0",100%
same,stability of ITZA,"[2]; H3G/5% Dex., day 1",102%
same,stability of ITZA,"[2]; H3G/5% Dex., day 2",109%
same,stability of ITZA,"[2]; H3G/5% Dex., day 3",94%
same,stability of ITZA,"[2]; H3G/5% Dex., day 4",99%
same,stability of ITZA,"[2]; H3G/5% Dex., day 5",42%
same,stability of ITZA,"[2]; H3G/10% dex., day 0",100%
same,stability of ITZA,"[2]; H3G/10% dex., day 2",102%
same,stability of ITZA,"[2]; H3G/10% dex., day 3",98%
same,stability of ITZA,"[2]; H3G/10% dex., day 4",107%
same,stability of ITZA,"[2]; H3G/10% dex., day 5",31%
same,stability of ITZA,"[2]; H3G/sal., day 0",100%
same,stability of ITZA,"[2]; H3G/sal., day 1",95%
same,stability of ITZA,"[2]; H3G/sal., day 2",94%
same,stability of ITZA,"[2]; H3G/sal., day 3",80%
same,stability of ITZA,"[2]; H3G/sal., day 4",70%
same,stability of ITZA,"[2]; H3G/sal., day 5",38%
same,Stability (%),"[2]; Solvent H3G, 0 hr",100%
same,Stability (%),"[2]; Solvent H3G, 2 hr",108%
same,Stability (%),"[2]; Solvent H3G, 4 hr",104%
same,Stability (%),"[2]; Solvent H3G, 6 hr",101%
same,Stability (%),"[2]; Solvent H3G, 8 hr",98%
same,Stability (%),"[2]; Solvent H3G, 24 hr",103%
same,Stability (%),"[2]; parent solvent H3, approximately 4 mg/mL, room temperature, 14 (2 w)",83%
same,Stability (%),"[2]; parent solvent H3, approximately 4 mg/mL, room temperature, 21 (3 w)",79%
same,Stability (%),"[2]; parent solvent H3, approximately 4 mg/mL, room temperature, 28 (4 w)",75%
same,Stability (%),"[2]; parent solvent H3, approximately 4 mg/mL, room temperature, 35 (5 w)",77%
same,Stability (%),"[2]; parent solvent H3, approximately 4 mg/mL, room temperature, 49 (7 w)",79%
same,Stability (%),"[2]; parent solvent H3, approximately 4 mg/mL, room temperature, 63 (9 w)",75%
same,Stability (%),"[2]; parent solvent H3, approximately 4 mg/mL, room temperature, 24 hrs",99%
same,Stability (%),"[2]; parent solvent H3, approximately 4 mg/mL, room temperature, 72 hrs",95%
same,Stability (%),"[2]; parent solvent H3, approximately 4 mg/mL, room temperature, 96 hrs",88%
same,Stability (%),"[2]; parent solvent H3, approximately 4 mg/mL, room temperature, 11 days",77%
same,Stability (%),"[2]; parent solvent H3, approximately 4 mg/mL, room temperature, time 0",100%
same,Stability (%),"[2]; solvent H3, approximately 4 mg/mL, 40° C., 3 hr",104%
same,Stability (%),"[2]; solvent H3, approximately 4 mg/mL, 40° C., 6 hr",98%
same,Stability (%),"[2]; solvent H3, approximately 4 mg/mL, 40° C., 24 hr",92%
same,Stability (%),"[2]; solvent H3, approximately 4 mg/mL, 40° C., 30 hr",89%
same,Stability (%),"[2]; solvent H3, approximately 4 mg/mL, 40° C., 48 hr",84%
same,Stability (%),"[2]; solvent H3, approximately 4 mg/mL, 40° C., 54 hr",79%
same,Stability (%),"[2]; solvent H3, approximately 4 mg/mL, 40° C., 78 hr",80%
same,Stability (%),"[2]; solvent H3, approximately 4 mg/mL, 40° C., 4 days",78%
same,Stability (%),"[2]; solvent H3, approximately 4 mg/mL, 40° C., 7 days",70%
same,Stability (%),"[2]; solvent H3, approximately 4 mg/mL, 40° C., 8 days",70%
same,Stability (%),"[2]; solvent H3, approximately 4 mg/mL, 40° C., 9 days",58%
same,Stability (%),"[2]; solvent H3, approximately 4 mg/mL, 40° C., 14 days",56%
same,Stability (%),"[2]; solvent H3, approximately 4 mg/mL, 40° C., 16 days",55%
same,Stability (%),"[2]; solvent H3, approximately 4 mg/mL, 40° C., 18 days",54%
same,Stability (%),"[2]; solvent H3, approximately 4 mg/mL, 40° C., 21 days",45%
same,Stability (%),"[2]; solvent H3, approximately 4 mg/mL, 40° C., 25 days",37%
same,Stability (%),"[2]; solvent H3, approximately 4 mg/mL, 40° C., 28 days",30%
same,Stability (%),"[2]; solvent H3, approximately 4 mg/mL, 40° C., 32 days",24%
same,Stability (%),"[2]; solvent H3/normal saline (1:1), approximately 2.0 mg/mL, RT, 0 hrs",100%
same,Stability (%),"[2]; solvent H3/normal saline (1:1), approximately 2.0 mg/mL, RT, 2 hrs",97%
same,Stability (%),"[2]; solvent H3/normal saline (1:1), approximately 2.0 mg/mL, RT, 4 hrs",97%
same,Stability (%),"[2]; solvent H3/normal saline (1:1), approximately 2.0 mg/mL, RT, 8 hrs",102%
same,Stability (%),"[2]; solvent H3/normal saline (1:1), approximately 2.0 mg/mL, RT, 14 hrs",109%
same,Stability (%),"[2]; solvent H3/normal saline (1:1), approximately 2.0 mg/mL, RT, 24 hrs",93%
same,MIC,"[3]; Aspergillus fumigatus, 48 h, read-out: MIC",0.6 µg/mL
same,MIC,[3],0.3 µg/mL
same,half-life,in vivo,~30 min
same,tolerability of IV injection (in words),[4],well accepted
